Reference: ChEMBL document CHEMBL1122422, “Resolution of etodolac and antiinflammatory and prostaglandin synthetase inhibiting properties of the enantiomers” (J Med Chem, 1983)

Organism: Ovis aries
Experiment: Effect of compound (400 uM) on biosynthesis of prostaglandins from tritiated arachidonic acid was evaluated in vitro; NE = No effect at the given concentration
Type: functional

CCc1cccc2c3c([nH]c12)C(CC)(CC(=O)O)OCC3 (single isomer, unassigned; (-)) was tested, and the Activity was “No effect”.
